Reference: ChEMBL document CHEMBL1949543, “Synthesis and evaluation of novel monosubstituted sulfonylurea derivatives as antituberculosis agents” (Eur J Med Chem, 2012)
≈ marks a conversion by molar mass, not a printed value.

Tested on: Mycobacterium tuberculosis variant bovis
Assay: Antituberculosis activity against Mycobacterium bovis ATCC 25523
Format: functional

`COc1ccnc(NC(=O)NS(=O)(=O)c2cc(NC(=O)CCl)ccc2Cl)n1` was tested, and the MIC was 10 µg/mL (≈ 23 µM).
`Cc1ccnc(NC(=O)NS(=O)(=O)c2cc(NC(=O)CCl)ccc2Cl)n1` showed an MIC of 10 µg/mL (≈ 23.9 µM).
